Experimental data: ChEMBL document CHEMBL1201862, “PubChem BioAssay data set” (2004)
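Five concentrations, 48 hours, 96-well plates. GI50 is the concentration that inhibits growth by half.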 Calls of active or inactive are those of the source. No stated cut-off is given here; in the data, active = GI50 up to about 1.1 µM and inactive = higher.

Assays:
Assay in all cases: DTP human tumour cell line panel, 48 h
A549 = test system: A549
NCI-H23 = test system: NCI-H23
PC-3 = test system: PC-3
SK-MEL-5 = test system: SK-MEL-5
EKVX = test system: EKVX
RPMI-8226 = test system: RPMI-8226
SF-268 = test system: SF-268
A498 = test system: A498
UACC-62 = test system: UACC-62
M14 = test system: M14
UACC-257 = test system: UACC-257
HCT-116 = test system: HCT-116
NCI-H226 = test system: NCI-H226
OVCAR-3 = test system: OVCAR-3
NCI/ADR-RES = test system: NCI/ADR-RES
ACHN = test system: ACHN
K562 = test system: K562
Malme-3M = test system: Malme-3M
SNB-75 = test system: SNB-75
IGROV-1 = test system: IGROV-1

Row | Compound | GI50 (A549) | GI50 (NCI-H23) | GI50 (PC-3) | GI50 (SK-MEL-5) | GI50 (EKVX) | GI50 (RPMI-8226) | GI50 (SF-268) | GI50 (A498) | GI50 (UACC-62) | GI50 (M14) | GI50 (UACC-257) | GI50 (HCT-116) | GI50 (NCI-H226) | GI50 (OVCAR-3) | GI50 (NCI/ADR-RES) | GI50 (ACHN) | GI50 (K562) | GI50 (Malme-3M) | GI50 (SNB-75) | GI50 (IGROV-1)
1 | CCNC(=S)NNC(=O)c1csc(NC(=S)NC2CCCCC2)n1 | 16.9 µM (inactive) | 22.8 µM (inactive) | 17.4 µM (inactive) | 2.79 µM (inactive) | > 100 µM (inactive) | 11.7 µM (inactive) | 10.8 µM (inactive) | 23 µM (inactive) | 6.18 µM (inactive) | 11.6 µM (inactive) | 4.79 µM (inactive) | 5.26 µM (inactive) | > 100 µM (inactive) | 3.25 µM (inactive) | 14.4 µM (inactive) | 7 µM (inactive) | – | – | – | –
2 | Cc1ccc(Sc2ccccc2C23OC(C)(C4C(=O)N(c5ccccc5)C(=O)C42)N(C)C3=O)cc1 (centres undefined) | > 100 µM (inactive) | > 100 µM (inactive) | > 100 µM (inactive) | > 100 µM (inactive) | > 100 µM (inactive) | – | > 100 µM (inactive) | 86.9 µM (inactive) | 88.5 µM (inactive) | > 100 µM (inactive) | > 100 µM (inactive) | > 100 µM (inactive) | > 100 µM (inactive) | > 100 µM (inactive) | > 100 µM (inactive) | > 100 µM (inactive) | > 100 µM (inactive) | 79.6 µM (inactive) | > 100 µM (inactive) | > 100 µM (inactive)
3 | CO[C@H]1O[C@@H]2CO[C@@H](c3ccccc3)O[C@H]2C[C@]12CCC/C=C\CO2 | 33.6 µM (inactive) | 21.1 µM (inactive) | 16.2 µM (inactive) | 17.5 µM (inactive) | 11.6 µM (inactive) | – | 14.4 µM (inactive) | 14 µM (inactive) | 27.4 µM (inactive) | 15.8 µM (inactive) | 22.2 µM (inactive) | 12.7 µM (inactive) | 18.3 µM (inactive) | 12.7 µM (inactive) | 21 µM (inactive) | 15.5 µM (inactive) | 13.9 µM (inactive) | 14.1 µM (inactive) | 22.5 µM (inactive) | –
4 | C[n+]1c(-c2ccc(/C=N\N3CCN(/N=C/c4ccc(-c5cn6ccccc6[n+]5C)cc4)CC3)cc2)cn2ccccc21 | > 100 µM (inactive) | 27.8 µM (inactive) | > 100 µM (inactive) | 17.8 µM (inactive) | 70.8 µM (inactive) | 20.9 µM (inactive) | 48.2 µM (inactive) | 16.2 µM (inactive) | 33.7 µM (inactive) | 48.4 µM (inactive) | 5.24 µM (inactive) | 70.8 µM (inactive) | 33 µM (inactive) | > 100 µM (inactive) | > 100 µM (inactive) | 45.1 µM (inactive) | – | – | 39.4 µM (inactive) | 57.9 µM (inactive)
5 | S=c1sc2ccccc2n1CN1CCN(Cc2ccccc2)CC1 | > 100 µM (inactive) | > 100 µM (inactive) | > 100 µM (inactive) | > 100 µM (inactive) | > 100 µM (inactive) | > 100 µM (inactive) | > 100 µM (inactive) | > 100 µM (inactive) | > 100 µM (inactive) | > 100 µM (inactive) | > 100 µM (inactive) | > 100 µM (inactive) | > 100 µM (inactive) | > 100 µM (inactive) | > 100 µM (inactive) | > 100 µM (inactive) | > 100 µM (inactive) | – | > 100 µM (inactive) | > 100 µM (inactive)
6 | CC(=O)NC1C(OCc2ccccc2)OC(CO)C(O)C1OC(C)C(=O)NC(C(=O)NC(CCC(=O)NCCCNc1ccc([N+](=O)[O-])c2[nH]c3ccccc3c(=O)c12)C(N)=O)C(C)C (centres undefined) | > 100 µM (inactive) | > 100 µM (inactive) | > 100 µM (inactive) | > 100 µM (inactive) | > 100 µM (inactive) | – | > 100 µM (inactive) | > 100 µM (inactive) | > 100 µM (inactive) | 51.9 µM (inactive) | > 100 µM (inactive) | > 100 µM (inactive) | > 100 µM (inactive) | > 100 µM (inactive) | > 100 µM (inactive) | > 100 µM (inactive) | – | – | > 100 µM (inactive) | > 100 µM (inactive)
7 | CNc1nnc(CNc2ccc(-c3nnc(NC)n3N)cc2)n1N | > 100 µM (inactive) | > 100 µM (inactive) | > 100 µM (inactive) | > 100 µM (inactive) | > 100 µM (inactive) | – | > 100 µM (inactive) | > 100 µM (inactive) | – | > 100 µM (inactive) | > 100 µM (inactive) | > 100 µM (inactive) | > 100 µM (inactive) | > 100 µM (inactive) | > 100 µM (inactive) | > 100 µM (inactive) | > 100 µM (inactive) | – | > 100 µM (inactive) | > 100 µM (inactive)
8 | C/C(=N\O)c1ccc2ccc3ccccc3c2c1 | 31.8 µM (inactive) | 65.3 µM (inactive) | 32.3 µM (inactive) | 19.2 µM (inactive) | 15.3 µM (inactive) | 34.6 µM (inactive) | 44.9 µM (inactive) | – | 18.9 µM (inactive) | 66.5 µM (inactive) | 22.9 µM (inactive) | 90.6 µM (inactive) | 26.4 µM (inactive) | 34.2 µM (inactive) | 31.3 µM (inactive) | 32.8 µM (inactive) | 25.5 µM (inactive) | 23.1 µM (inactive) | 25.5 µM (inactive) | 44 µM (inactive)
9 | CC1(C)C2CC(c3ccncc3)ON2C(C)(C)N1O (centres undefined) | > 100 µM (inactive) | > 100 µM (inactive) | > 100 µM (inactive) | > 100 µM (inactive) | > 100 µM (inactive) | > 100 µM (inactive) | > 100 µM (inactive) | – | > 100 µM (inactive) | > 100 µM (inactive) | > 100 µM (inactive) | > 100 µM (inactive) | > 100 µM (inactive) | > 100 µM (inactive) | > 100 µM (inactive) | > 100 µM (inactive) | > 100 µM (inactive) | > 100 µM (inactive) | > 100 µM (inactive) | > 100 µM (inactive)
10 | CCOC(=O)C1(C/C=C\CBr)CCCC1=O (centres undefined) | 30.6 µM (inactive) | 23.8 µM (inactive) | 36.7 µM (inactive) | 26.7 µM (inactive) | > 100 µM (inactive) | – | 32.5 µM (inactive) | > 100 µM (inactive) | 15.7 µM (inactive) | 21.7 µM (inactive) | 39 µM (inactive) | 19.5 µM (inactive) | 20.8 µM (inactive) | – | 25.5 µM (inactive) | 20.4 µM (inactive) | – | 48.1 µM (inactive) | 27 µM (inactive) | 24.9 µM (inactive)
11 | COc1ccc(Nc2nc(N)c(C(=O)c3ccc(Cl)cc3)s2)cc1 | < 0.0224 µM (active) | < 0.0152 µM (active) | < 0.01 µM (active) | 0.0123 µM (active) | 39.6 µM (inactive) | < 0.01 µM (active) | 0.297 µM (active) | < 0.01 µM (active) | < 0.01 µM (active) | < 0.01 µM (active) | 42.9 µM (inactive) | < 0.01 µM (active) | 0.018 µM (active) | < 0.01 µM (active) | < 0.01 µM (active) | < 0.01 µM (active) | < 0.01 µM (active) | – | < 0.01 µM (active) | 0.0655 µM (active)
12 | O/N=N/c1ccc2ccccc2n1 | > 100 µM (inactive) | > 100 µM (inactive) | > 100 µM (inactive) | > 100 µM (inactive) | 90.2 µM (inactive) | > 100 µM (inactive) | > 100 µM (inactive) | 72.9 µM (inactive) | > 100 µM (inactive) | > 100 µM (inactive) | > 100 µM (inactive) | > 100 µM (inactive) | > 100 µM (inactive) | > 100 µM (inactive) | > 100 µM (inactive) | > 100 µM (inactive) | > 100 µM (inactive) | – | 75.5 µM (inactive) | > 100 µM (inactive)
13 | CN(C)CS/C(N)=N\C(O)C(Cl)(Cl)Cl (centres undefined) | > 100 µM (inactive) | > 100 µM (inactive) | > 100 µM (inactive) | > 100 µM (inactive) | > 100 µM (inactive) | – | > 100 µM (inactive) | > 100 µM (inactive) | > 100 µM (inactive) | > 100 µM (inactive) | > 100 µM (inactive) | > 100 µM (inactive) | > 100 µM (inactive) | > 100 µM (inactive) | > 100 µM (inactive) | > 100 µM (inactive) | > 100 µM (inactive) | > 100 µM (inactive) | > 100 µM (inactive) | > 100 µM (inactive)
14 | COC(=O)C1(C(=O)OC)Cc2ccc(OC)cc2C2=C1C(=O)c1ccccc1C2=O | 14.9 µM (inactive) | 6.62 µM (inactive) | 1.87 µM (inactive) | 7.4 µM (inactive) | 4.46 µM (inactive) | – | 6.67 µM (inactive) | 18.3 µM (inactive) | 1.85 µM (inactive) | 18.4 µM (inactive) | 2.48 µM (inactive) | 3.24 µM (inactive) | 17.7 µM (inactive) | 0.282 µM (active) | 2.69 µM (inactive) | 5.74 µM (inactive) | 1.84 µM (inactive) | 10.8 µM (inactive) | 17.7 µM (inactive) | 2.77 µM (inactive)
15 | Cc1c(C2=C(Br)C(=O)N(C)C2=O)c(=O)n(C)c(=O)n1C | > 100 µM (inactive) | 20.7 µM (inactive) | 23.6 µM (inactive) | 22 µM (inactive) | 21.6 µM (inactive) | 15.1 µM (inactive) | 43.5 µM (inactive) | 29.4 µM (inactive) | 34.4 µM (inactive) | 35.1 µM (inactive) | 17.4 µM (inactive) | 20.5 µM (inactive) | > 100 µM (inactive) | 37.2 µM (inactive) | 27.8 µM (inactive) | 26.7 µM (inactive) | 21.3 µM (inactive) | – | > 100 µM (inactive) | 18 µM (inactive)
